PMC3880318, “Green Tea and One of Its Constituents, Epigallocatechine-3-gallate, Are Potent Inhibitors of Human 11β-hydroxysteroid Dehydrogenase Type 1” (PLoS ONE, 2014)
Values joined by “and” are separate entries in the source; they are usually repeats but may differ in a detail not shown here. Equal values may be shown once. “Also recorded” adds a separate entry of the source. Read-outs that look alike come from different tables or passages of the source.

How the values were obtained:
[1] = molecular target: T1, human microsomal 11β-HSD1 (Homo sapiens, UniProt P28845); assay: Inhibition of cortisone reduction (11β-HSD1 reductase activity) in human liver microsomes, cortisol quantified by HPLC; conditions: for IC50: IC50, inhibition of cortisone reduction
T1 sequence (P28845 whole entry): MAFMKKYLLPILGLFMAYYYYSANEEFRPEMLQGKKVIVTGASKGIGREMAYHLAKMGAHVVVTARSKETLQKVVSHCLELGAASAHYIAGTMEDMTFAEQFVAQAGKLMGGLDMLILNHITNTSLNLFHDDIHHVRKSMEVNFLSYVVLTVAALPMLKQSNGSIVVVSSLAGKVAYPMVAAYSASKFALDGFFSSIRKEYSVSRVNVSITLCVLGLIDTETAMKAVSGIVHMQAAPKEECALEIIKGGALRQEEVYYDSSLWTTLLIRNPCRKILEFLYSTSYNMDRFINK
Description: (§1) In terms of 11β-HSD1 reductase activity, inhibition analysis was performed as follows: 50 µl of tea extract were added to a mixture containing 400 µM cortisone, 0.8 mM NADPH solution in 100 mM phosphate buffer pH 7.4. […] The total assay volume was 250 µl.
(§2) The reaction was stopped by adding 250 µl ice-cold ethylacetate and vortexing, followed by a 30 sec centrifugation at 13,000 RPM in a microcentrifuge. The organic phase was separated and the aqueous phase extracted two more times with 250 µl ethylacetate. The ethylacetate phases were combined and the solvent was removed in a SpeedVac (ThermoSavant). The resulting residue was dissolved in 150 µl methanol-water (58∶42, v/v) and used for metabolite quantification by HPLC.
(§3) Product yield was quantified by peak integration of the cortisone and cortisol peaks, respectively.
(§4) The data obtained were plotted as substrate-velocity curves and analyzed by nonlinear-regression.

[2] = molecular target: T2, 11β-HSD1 in human liver microsomes (Homo sapiens, UniProt P28845); assay: Inhibition of cortisol oxidation (11β-HSD1 dehydrogenase activity) in human liver microsomes, HPLC; assay type: biochemical; conditions: pH 9.0, NADP
T2 construct: The reaction was started by adding 5 µl of human liver microsomes (218 µg protein); from tissue; host or cells: human liver (microsomal fraction)
T2 sequence (P28845 whole entry): as above
Description: Here, the incubation time was 60 min at 37°C in a 100 mM phosphate buffer pH 9.0.

purified 11β-HSD1 [3] = molecular target: T3, purified 11β-HSD1 (Homo sapiens, UniProt P28845); assay: Inhibition of cortisone reduction by purified human 11β-HSD1; assay type: biochemical
T3 construct: from tissue; host or cells: human liver
T3 sequence (P28845 whole entry): as above
Description: The total assay volume was 250 µl.

[4] = molecular target: T1, human microsomal 11β-HSD1; assay: biochemical
Description: as §1, §2, §3, §4

purified 11β-HSD1 [5] = molecular target: T3, purified 11β-HSD1; assay: Western Blot analysis for EGCG-induced 11β-HSD1 aggregate formation; conditions: preincubation 3 h at 37°C, up to 100 µM
Description: To exclude EGCG-induced 11β-HSD1 aggregate formation, purified 11β-HSD1 (2.14 µg) was preincubated with 25–100 µM EGCG (3 h at 37°C) and then prepared for sodium dodecyl sulfate polyacrylamide gel electrophoresis (SDS-PAGE) according to the manufacturer's protocol. As a control, the same volume of untreated purified protein was loaded onto the parallel lane.
The resolved proteins were transferred to nitrocellulose membranes. After blocking the membrane for 1 h at RT with 5% non-fat dry milkpowder in PBS-buffer, the blocking solution was replaced by the primary antibody at a 1∶2,000 dilution and the membrane was incubated at 4°C for about 16 h. Primary and secondary antibodies were diluted in PBS containing 2.5% non-fat dry milkpowder. The membrane was washed three times and then the corresponding secondary antibody was added at a dilution of 1∶10,000. After a 1.5 h incubation at RT the membrane was washed three times and the specific Western blot signals of 11β-HSD1 were detected by the ECL Western Blotting System according to the manufacturer's instructions.

[6] = read-out: inhibition of cortisone reduction

`Oc1cc(O)c2c(c1)O[C@@H](c1cc(O)c(O)c(O)c1)[C@H](O)C2` [GC, (−)-gallocatechin] gave an inhibition at 100 µM [1, 6] of about 53%.

For `O=C(O[C@@H]1Cc2c(O)cc(O)cc2O[C@@H]1c1cc(O)c(O)c(O)c1)c1cc(O)c(O)c(O)c1` [EGCG, (−)-epigallocatechin-3-gallate], the IC50 ([1]; human liver microsomes, freshly prepared solution) was 58 µM, the IC50 ([1]; stored solution, human liver microsomes, aqueous solution stored at −20°C for one week) was 26.9 µM and the type of inhibition ([1]; human liver microsomes, with respect to cortisone) was “mixed inhibition”. For the same molecule, the inhibition at 100 µM [1, 6] was about 75%, the IC50 [2] was 131 µM and the type of inhibition (purified 11β-HSD1 [3]; purified 11β-HSD1, with respect to cortisone) was “mixed inhibition; also recorded: mixed mode”. For the same molecule, the Ki (purified 11β-HSD1 [3]; purified human 11β-HSD1, read-out: Ki (estimated by Dixon-plot) on cortisone reduction) was 20.9 µM, the Ki (purified 11β-HSD1 [3]; purified human 11β-HSD1, read-out: Ki (non-linear regression) on cortisone reduction) was 18.7 µM and the Ki [4] was 22.7 µM and 17.8 µM. For the same molecule, the protein aggregate formation (purified 11β-HSD1 [5]) was “did not induce protein aggregate formation”.

With `OO` [hydrogen peroxide, reference compound] the “influence on cortisol production” value ([1]; up to 300 µM, human liver microsomes) was “No 11β-HSD1 inhibition” and the “influence on cortisol production” value (purified 11β-HSD1 [3]; up to 300 µM, purified human 11β-HSD1) was “No 11β-HSD1 inhibition”.

`Oc1cc(O)c2c(c1)O[C@H](c1cc(O)c(O)c(O)c1)[C@H](O)C2` [EGC, (−)-epigallocatechin] showed an inhibition at 200 µM [1, 6] of about 25%.
